How the values were obtained:
[1] = system: rat uterine cytosol estrogen receptor; test: competition binding on rat uterine cytosol estrogen receptor with [3H]estradiol; conditions: incubation at 25° C. for 3 hours; [3H]estradiol competition
Procedure: FIG. 1 illustrates a competition binding assay of the affinity of estradiol, diethylstilbestrol, ICI 164384 (Wakeling A. E. and Bowler J., 1987; J. Endocr. 112, R7-R10) and EM-142 (an antiestrogen in accordance with the invention synthesized in example 1, herein) for the rat uterine cytosol receptor (Asselin et al., 1978; J. Steroid Biochem. 9:1079-1082).
EM-142 from example 1 was tested by competition binding on the rat uterine cytosol estrogen receptor with [^3 H]estradiol according to Asselin et al. (1976) procedure. […] (Incubation was performed at 25° C. for 3 hours).

[2] = system: estradiol-induced stimulation of uterine weight; test: inhibition of estradiol-induced stimulation of uterine weight in ovariectomized mice; format: in vivo, Balb/c mice
Procedure: FIG. 2 illustrates the effect of the indicated doses of EM-142 injected twice daily (b.i.d.) on uterine weight (mg) in adult female ovariectomized Balb/C mice treated for 4.5 days in the presence or absence of simultaneous treatment with 17β-estradiot (0.01 μg, b.i.d.). […] EM-142, and/or estradiol contained in ethanol were injected subcutaneously in the appropriate groups in a solution of 0.9% (w/v) sodium chloride and 1% (w/v) gelatin at different concentrations in 0.2 ml for EM-142, twice daily, starting on the day of ovariectomy for a total of 9 injections. Estradiol was injected at the dose of 0.01 μg in 0.2 ml, twice daily, starting on the morning after ovariectomy for a total of 8 injections. After sacrifice, the uteri were rapidly removed, freed from fat and connective tissue and weighted. Results shown in FIG. 2 are the means ± SEM of groups of 9-10 mice.

advanced breast cancer = conditions: cited from earlier work

## CCCCN(C)C(=O)CCCCCCCCCCC(=C(CC)c1ccc(O)cc1)c1ccc(O)cc1 [EM-142, N-butyl,N-methyl-12,13-Bis (4-hydroxyphenyl)-12-pentadecenoic amide]
[1]
  binding potency compared with ICI 164384: more potent than the antiestrogen ICI 164384
  binding potency relative to 17β-estradiol (times less potent): 3 times
[2]; 0.3 μg s.c. twice daily, 9 injections, estradiol 0.01 μg b.i.d.
  effect on E2-induced uterine growth at 0.3 μg: significant inhibitory effect
[2]; 20 μg s.c. twice daily, 9 injections, estradiol 0.01 μg b.i.d.
  effect on estrogenic action at 20 μg: complete reversal of estrogenic action
[2]; EM-142 in absence of estradiol, s.c. twice daily
  estrogenic (agonistic) effect on uterine weight: no estrogenic effect on uterine weight
[2]; s.c. twice daily, 9 injections, estradiol 0.01 μg b.i.d.
  dose giving half-maximal inhibitory effect on E2-induced uterine growth: approximately 3 μg

## CC/C(=C(\c1ccccc1)c1ccc(OCCN(C)C)cc1)c1ccccc1 [Tamoxifen]
Advanced breast cancer
  women patients treated with remission of advanced breast cancer: about 30%

Source: patent US5393785A, “Therapeutic antiestrogens” (Endorecherche, Inc., priority 1992, dated 1995)
